Reference: the supplement of paper PMC3842684

Key:
[1] = tested on: P. falciparum NF54-pfs16-GFP late (IV-V) stage gametocytes; conditions: stage: late (IV-V) gametocyte; incubation 72 h
Description: (§1)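 MMV Malaria Box compounds active in the primary screen were retested in dose-response against P. falciparum NF54-pfs16-GFP early (I-III) or late (IV-V) gametocytes, 72 h, 37 C, viable gametocytes counted by confocal imaging; IC50 from an unconstrained 4-parameter fit. Compounds with no plateau have no IC50 and are left out.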

[2] = tested on: P. falciparum NF54-pfs16-GFP early (I-III) stage gametocytes; conditions: stage: early (I-III) gametocyte; incubation 72 h
Description: as §1

SMILES	IC50, viable gametocyte number [1]	IC50, viable gametocyte number [2]
COc1ccc(C(=O)C(CCC(CNC(C)(C)C)C(=O)c2ccc(OC)cc2)CNC(C)(C)C)cc1 (stereo unspecified)	1090 nM	
OCCNc1nc(Nc2ccc(Cl)c(Cl)c2)nc2ccccc12	1350 nM	
CSC1=NC(=Nc2c(C)cccc2C)C2(CCC(C(C)(C)C)CC2)N1c1ccc(Cl)cc1 (stereo unspecified)	592 nM	
CCN(CC)CCn1c(=N)n(CC(O)c2ccc(Cl)c(Cl)c2)c2ccccc21 (stereo unspecified)	1090 nM	1440 nM
CCOC(=O)c1cn(CC)c2cc(N(C)CCc3ccc(OC)c(OC)c3)c(F)cc2c1=O	574 nM	
COc1cccc(O)c1CN1CCC2(CCCN(Cc3ccc(F)cc3)C2)C1 (stereo unspecified)	899 nM	
CCCCCCc1cc(O)c2c3c(c(=O)oc2c1)CCC(C)C3 (stereo unspecified)	759 nM	
CN1CCN(c2ccc(Nc3c4ccccc4nc4ccccc34)cc2)CC1	1360 nM	1110 nM
CCOC(=O)C1=C(C)N=c2sc(=Cc3ccccc3O)c(=O)n2C1c1ccc(OC)c2ccccc12 (stereo unspecified)	1080 nM	
CCCCCCn1c(=N)n(CC(O)COc2cccc(C)c2)c2ccccc21 (stereo unspecified)	1610 nM	
COc1ccc(Nc2nc(NCc3ccccc3)c3ccccc3n2)cc1		1480 nM
CC(C)(C)c1ccc(O)c(CNC2CCCCC2)c1	382 nM	712 nM
Cc1cccc(-n2ncc3c(=O)[nH]c(-n4nc(C)cc4NC(=O)c4cc5ccccc5o4)nc32)c1	1090 nM	
COc1ccc(NC(=O)C2c3ccccc3C(=O)N(CC(C)C)C2c2cccs2)cc1Cl (stereo unspecified)	596 nM	
c1ccc(Cn2c(N=Nc3c(Nc4ccccc4)ccc4ccccc34)nc3ccccc32)cc1	184 nM	
Cc1ccc(N2C3c4ccccc4N(S(=O)(=O)c4ccc(C)cc4)C2c2ccccc2N3S(=O)(=O)c2ccc(C)cc2)cc1	208 nM	1180 nM
CN(C)CCCNc1c2ccccc2nc2ccccc12	703 nM	1440 nM
Clc1cc(Br)ccc1-c1ccc(CNCC2CCNCC2)o1	692 nM	824 nM
CC(C)CCNCC(O)Cn1c2ccccc2c2ccccc21 (stereo unspecified)	1170 nM	
CCOC(=O)c1c(NC(=O)c2ccccc2)sc2c(O)c(CN(CC)CC)ccc12	371 nM	810 nM
Cn1c(=O)n(C)c2cc(CNCCNc3ccnc4cc(Cl)ccc34)ccc21		588 nM
CC1CCCCN1CCCNC(=O)c1ccc2c(c1)sc1nc(-c3ccc(F)cc3)cn12 (stereo unspecified)		1790 nM
COc1cccc(C=Cc2nc(=O)c3ccccc3o2)c1OC	438 nM	
OC(CNC1CCCCC1)Cn1c2ccc(I)cc2c2cc(I)ccc21 (stereo unspecified)	63 nM	252 nM

SMILES	IC50, viable gametocyte number [1]	IC50, viable gametocyte number [2]
COc1ccc(-c2nc3cc(Cc4ccc5[nH]c(-c6ccc(OC)cc6)nc5c4)ccc3[nH]2)cc1	1110 nM	949 nM
O=c1cc(NC2CCN(CCCc3ccccc3)CC2)c2cc(Cl)ccc2o1		1310 nM
CCCc1cc(O)c2c3c(c(=O)oc2c1)CN(C)CC3	591 nM	
COc1ccc(C2NCCc3c2[nH]c2ccccc32)cc1CN1CCN(c2ccc(F)cc2)CC1 (stereo unspecified)	1170 nM	
Oc1ccccc1CN1CCC2(CCCN(Cc3ccccc3F)C2)C1 (stereo unspecified)	673 nM	1360 nM
COc1ccc(-c2nc(N3CCN(C(=O)C4CCCCC4)CC3)c3c4c(sc3n2)CCCC4)cc1	1290 nM	
Cc1ccc2c(C)nc(Nc3nc(C)cc(-c4ccccc4)n3)nc2c1	673 nM	
O=C1c2ccccc2C2=Nc3ccccc3SC(c3cccc(F)c3)C12 (stereo unspecified)	733 nM	
CCc1ccc(Nc2cc(C)c3ccc(O)cc3n2)cc1	1270 nM	
CCOC(=O)c1cn(CC)c2cc(N3CCCCC3)c(F)cc2c1=O	337 nM	
CN(C)c1ccc(C=Cc2nc(=O)c3ccccc3o2)cc1	936 nM	
CC1CC2=C(CC1CNCCCN(C)C)C(C)(C)CCC2 (stereo unspecified)	541 nM	
COc1ccc(C=C2SC(Nc3ccc(F)cc3)=NC2=O)c(OC)c1	892 nM	
COc1cc2c(cc1OC)C1=NNC(=O)C1=NC(C)(C)C2	1040 nM	
OC1=C2C(=Nc3ccccc3SC2c2ccc(Br)cc2)c2ccccc21 (stereo unspecified)	875 nM	
CC(C)(C)c1ccc2c(c1)CN(Cc1ccc(Cl)cc1)CO2	920 nM	
Brc1ccc(Nc2nc3ccccc3nc2Nc2ccc(Br)cc2)cc1	948 nM	
C=CC12CCN(CC1)C(C(O)c1ccnc3ccc(OC)cc13)C2 (stereo unspecified)	276 nM	823 nM
COc1ccc(C(=O)NC(c2ccc(Cl)cc2Cl)c2cc(Cl)c3cccnc3c2O)cc1 (stereo unspecified)	1080 nM	
Nc1ccc(-c2nc3cc(Cc4ccc5[nH]c(-c6ccc(N)cc6)nc5c4)ccc3[nH]2)cc1	1100 nM	
COc1ccc(C2c3ccc4ccccc4c3Oc3ncn(CCCN(C)C)c(=N)c32)cc1 (stereo unspecified)	1060 nM	
COc1ccc2c(=O)cc(C(Cl)(Cl)Cl)oc2c1		1210 nM
CCCOCc1cc(CN2CCN(c3cccc(Cl)c3)CC2)c(O)c2ncccc12	584 nM	
CCOc1ccccc1CN1CCc2nc3cc(C(C)(C)C)nn3c(O)c2C1	1590 nM	

SMILES	IC50, viable gametocyte number [1]	IC50, viable gametocyte number [2]
Oc1ccccc1CN1CCN(C(c2ccccc2)c2ccccc2)CC1	1320 nM	
Cc1ccc(Nc2nc(-c3ccccn3)cs2)cc1	231 nM	461 nM
Oc1ccccc1CNCC12CC3CC(CC(C3)C1)C2	415 nM	891 nM
CCOC(=O)c1cnc2ccc(CC)cc2c1O	253 nM	
COc1ccc(C2=C(c3ccc(OC)cc3)C3(c4ccccc4)C(=O)C2(c2ccccc2)C2C(=O)N(c4ccc(C)cc4)C(=O)C23)cc1 (stereo unspecified)	333 nM	
CC1=C(CC(=O)c2cccc([N+](=O)[O-])c2)C(=O)c2ccccc2C1=O	745 nM	1160 nM
Oc1ccc(-c2nc(-c3ccc4oc5ccc(-c6[nH]c(-c7ccc(O)cc7)nc6-c6ccccc6)cc5c4c3)c(-c3ccccc3)[nH]2)cc1		699 nM
CCCCCCc1cc2cc(-c3csc(C=Cc4ccccc4)n3)c(=O)oc2cc1O	594 nM	830 nM
CCN(CC)CCNc1ccnc2cc(Cl)ccc12		1020 nM
COc1ccc(C(C)=O)cc1N1C(=O)C2C(C1=O)C1(c3ccccc3)C(=O)C2(c2ccccc2)C(c2ccc(C)cc2)=C1c1ccc(C)cc1 (stereo unspecified)	826 nM	
Cc1sc2ncnc(Sc3nc4ccccc4[nH]3)c2c1C	324 nM	1140 nM
CCCCCCc1cc2cc(-c3nc4ccccc4[nH]3)c(=Nc3ccccc3C)oc2cc1O	465 nM	819 nM
CCOC(=O)C1=C(C)N=c2sc(=Cc3cc(Cl)ccc3O)c(=O)n2C1c1ccc(OC)cc1 (stereo unspecified)	228 nM	359 nM
FC(F)(F)c1cccc(Nc2nc3ccccc3nc2Nc2cccc(C(F)(F)F)c2)c1	416 nM	1310 nM
COC(=O)c1ccc(C2C3=C(O)CC(c4ccc(F)cc4)CC3=Nc3ccccc3N2C(=O)c2ccccc2)cc1 (stereo unspecified)	1130 nM	
CN(C)c1ccc(C(O)(c2ccc(N(C)C)cc2)c2ccc(N(C)C)cc2)cc1	315 nM	769 nM
Cc1cc(Nc2ccc(OCc3ccccc3)cc2)nc2cc(O)ccc12	784 nM	
Cc1ccc(-c2cc3c(nn2)-c2ccccc2C3=O)cc1	603 nM	
OC(CNC1CCCCC1)Cn1c2ccccc2c2ccccc21 (stereo unspecified)	897 nM	
CSc1ccccc1C(=O)Nc1nc(-c2ccccn2)cs1	781 nM	
CNCCCNc1ccnc2cc(Cl)ccc12	310 nM	274 nM
CCN(CC)CCNc1ccnc2cc3ccccc3cc12		1710 nM
